Tests used:
[1] = molecular target: DDR1 (Homo sapiens, UniProt Q08345); assay: DDR1 binding assay (LanthaScreen Europium Kinase Binding assay); set-up: purchased Carna Biosciences; settings: 5 nM DDR1, 20 nM Kinase Tracer 178, 1 hour at room temperature; Ki from IC50 by Cheng-Prusoff
Method: (§1) DDR1 and DDR2 binding assays were performed using Life Technologies LanthaScreen™ Europium Kinase Binding assay. The compounds were incubated with 5 nM DDR1 (Carna Biosciences) or 5 nM DDR2 (Life Technologies) for 1 hour at room temperature in white 384-well OptiPlate (PerkinElmer), containing 20 nM or 10 nM Kinase Tracer 178 respectively and 2 nM Europium labelled anti-GST antibody (Life Technologies) in assay buffer (50 mM HEPES pH 7.5, 10 mM MgCl2, 1 mM EGTA and 0.01% BRIJ35).
(§2) The ratio of fluorescence emission 665 nm/615 nm after excitation at 340 nm was obtained using the Tecan Spark 20M plate reader. IC50 values were determined in GraphPad Prism 7.0 software, using 4 parameter model: log(inhibitor) vs. response. IC50 values were converted in Ki using the Cheng-Prusoff equation (Ki=IC50/(1+[Tracer]/Kd).

[2] = molecular target: T1, DDR2 (Homo sapiens, UniProt Q16832); assay: DDR2 binding assay (LanthaScreen Europium Kinase Binding assay); set-up: purchased Life Technologies; settings: 5 nM DDR2, 10 nM Kinase Tracer 178, 1 hour at room temperature; Ki from IC50 by Cheng-Prusoff
T1 sequence (Q16832 22-855): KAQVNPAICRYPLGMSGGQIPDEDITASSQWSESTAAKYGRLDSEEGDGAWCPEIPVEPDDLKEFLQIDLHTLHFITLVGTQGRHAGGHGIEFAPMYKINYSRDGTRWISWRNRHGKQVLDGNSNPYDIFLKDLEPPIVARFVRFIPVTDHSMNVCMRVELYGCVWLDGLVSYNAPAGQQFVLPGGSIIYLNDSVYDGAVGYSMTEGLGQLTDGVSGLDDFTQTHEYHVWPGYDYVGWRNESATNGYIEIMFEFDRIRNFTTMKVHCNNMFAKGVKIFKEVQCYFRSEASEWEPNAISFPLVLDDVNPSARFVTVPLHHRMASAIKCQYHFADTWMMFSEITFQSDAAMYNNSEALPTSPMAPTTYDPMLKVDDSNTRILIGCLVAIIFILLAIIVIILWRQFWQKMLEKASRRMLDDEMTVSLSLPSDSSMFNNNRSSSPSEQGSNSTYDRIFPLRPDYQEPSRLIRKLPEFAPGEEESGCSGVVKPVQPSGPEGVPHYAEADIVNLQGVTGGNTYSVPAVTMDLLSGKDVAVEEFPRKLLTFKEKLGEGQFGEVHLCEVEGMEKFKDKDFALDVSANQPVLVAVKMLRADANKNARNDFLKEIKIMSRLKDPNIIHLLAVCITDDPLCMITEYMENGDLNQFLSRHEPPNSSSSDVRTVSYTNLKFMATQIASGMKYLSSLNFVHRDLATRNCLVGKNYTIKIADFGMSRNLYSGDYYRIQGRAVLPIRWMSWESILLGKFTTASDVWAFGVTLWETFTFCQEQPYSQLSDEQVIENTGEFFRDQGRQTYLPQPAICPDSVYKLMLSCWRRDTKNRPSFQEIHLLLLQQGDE
Method: as §1, §2

Sequence of DDR1 (Q08345 19-913): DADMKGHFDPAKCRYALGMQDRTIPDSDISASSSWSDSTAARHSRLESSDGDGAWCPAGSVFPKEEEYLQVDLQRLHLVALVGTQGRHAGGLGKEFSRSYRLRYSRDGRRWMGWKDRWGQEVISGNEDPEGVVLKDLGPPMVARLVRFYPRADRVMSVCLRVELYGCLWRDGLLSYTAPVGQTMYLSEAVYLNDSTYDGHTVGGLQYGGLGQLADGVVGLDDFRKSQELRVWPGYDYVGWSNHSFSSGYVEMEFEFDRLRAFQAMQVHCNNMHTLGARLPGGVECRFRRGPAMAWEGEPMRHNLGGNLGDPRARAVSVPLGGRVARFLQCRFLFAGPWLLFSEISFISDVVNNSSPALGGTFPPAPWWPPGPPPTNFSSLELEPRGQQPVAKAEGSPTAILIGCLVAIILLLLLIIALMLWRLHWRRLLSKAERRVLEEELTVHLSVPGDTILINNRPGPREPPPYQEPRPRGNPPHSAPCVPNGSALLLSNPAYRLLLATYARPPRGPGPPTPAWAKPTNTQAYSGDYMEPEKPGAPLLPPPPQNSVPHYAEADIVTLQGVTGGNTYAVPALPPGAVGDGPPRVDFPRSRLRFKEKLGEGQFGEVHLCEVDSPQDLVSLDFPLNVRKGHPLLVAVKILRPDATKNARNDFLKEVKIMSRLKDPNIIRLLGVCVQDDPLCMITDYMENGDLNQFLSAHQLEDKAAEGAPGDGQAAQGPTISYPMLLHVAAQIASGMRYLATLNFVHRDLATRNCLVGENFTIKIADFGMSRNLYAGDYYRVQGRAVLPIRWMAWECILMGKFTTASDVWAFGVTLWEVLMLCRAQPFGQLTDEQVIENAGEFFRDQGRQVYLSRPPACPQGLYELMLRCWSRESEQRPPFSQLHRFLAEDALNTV

SMILES	Ki [1]	Ki [2]
Cc1ccc(C(=O)Nc2cc(CN3CCN(C)CC3)cc(C(F)(F)F)c2)cc1CNc1cncnc1 [Example 19, 4-methyl-N-(3-((4-methylpiperazin-1-yl)methyl)-5-(trifluoromethyl)phenyl)-3-((pyrimidin-5-ylamino)methyl)benzamide]	< 30 nM	< 30 nM
Cc1cn(-c2cc(NC(=O)c3ccc(C(F)F)c(CNc4cncnc4)c3)cc(C(F)(F)F)c2)cn1 [Example 36, 4-(difluoromethyl)-N-(3-(4-methyl-1H-imidazol-1-yl)-5-(trifluoromethyl)phenyl)-3-((pyrimidin-5-ylamino)methyl)benzamide]	< 30 nM	< 30 nM
CC(C)c1ccc(C(=O)Nc2cc(CN3CCN(C)CC3)cc(C(F)(F)F)c2)cc1CNc1cnc2ccnn2c1 [Example 16, 4-isopropyl-N-(3-((4-methylpiperazin-1-yl)methyl)-5-(trifluoromethyl)phenyl)-3-((pyrazolo[1,5-a]pyrimidin-6-ylamino)methyl)benzamide]	30 to 300 nM	30 to 300 nM
Cc1ccc(NC(=O)c2cc(CN3CCN(C)CC3)cc(C(F)(F)F)c2)cc1CNCc1cncnc1 [Example 11, N-(4-methyl-3-(((pyrimidin-5-ylmethyl)amino)methyl)phenyl)-3-((4-methylpiperazin-1-yl)methyl)-5-(trifluoromethyl)benzamide]	300 to 1000 nM	300 to 1000 nM
CCCc1ccc(C(=O)Nc2cc(CN3CCN(C)CC3)cc(C(F)(F)F)c2)cc1CNc1cncnc1 [Example 29, N-(3-((4-methylpiperazin-1-yl)methyl)-5-(trifluoromethyl)phenyl)-4-propyl-3-((pyrimidin-5-ylamino)methyl)benzamide]	< 30 nM	30 to 300 nM
Cc1cn(-c2cc(NC(=O)c3ccc(C)c(CNc4cnc5ccnn5c4)c3)cc(C(F)(F)F)c2)cn1 [Example 1, 4-methyl-N-(3-(4-methyl-1H-imidazol-1-yl)-5-(trifluoromethyl)phenyl)-3-((pyrazolo[1,5-a]pyrimidin-6-ylamino)methyl)benzamide]	< 30 nM	< 30 nM
Cc1ccc(NC(=O)c2cc(CN3CCN(C)CC3)cc(C(F)(F)F)c2)cc1CNCc1cnc2[nH]ccc2c1 [Example 15, N-(3-((((1H-pyrrolo[2,3-b]pyridin-5-yl)methyl)amino)methyl)-4-methylphenyl)-3-((4-methylpiperazin-1-yl)methyl)-5-(trifluoromethyl)benzamide]	30 to 300 nM	30 to 300 nM
CNC(=O)c1cc(NCc2cc(NC(=O)c3cc(CN4CCN(C)CC4)cc(C(F)(F)F)c3)ccc2C)ccn1 [Example 10, N-methyl-4-((2-methyl-5-(3-((4-methylpiperazin-1-yl)methyl)-5-(trifluoromethyl)benzamido)benzyl)amino)picolinamide]	< 30 nM	30 to 300 nM
CCN(Cc1cc(C(=O)Nc2cc(-n3cnc(C)c3)cc(C(F)(F)F)c2)ccc1C)c1cnc2ccnn2c1 [Example 2, 3-((ethyl(pyrazolo[1,5-a]pyrimidin-6-yl)amino)methyl)-4-methyl-N-(3-(4-methyl-1H-imidazol-1-yl)-5-(trifluoromethyl)phenyl)benzamide]	< 30 nM	300 to 1000 nM
Cc1cn(-c2cc(NC(=O)c3ccc(C)c(CNc4ccc(C#N)cn4)c3)cc(C(F)(F)F)c2)cn1 [Example 8, 3-(((5-cyanopyridin-2-yl)amino)methyl)-4-methyl-N-(3-(4-methyl-1H-imidazol-1-yl)-5-(trifluoromethyl)phenyl)benzamide]	30 to 300 nM	30 to 300 nM
Cc1cn(-c2cc(NC(=O)c3ccc(C)c(CNC(=O)c4cnc5[nH]ccc5c4)c3)cc(C(F)(F)F)c2)cn1 [Example 25, N-(2-methyl-5-((3-(4-methyl-1H-imidazol-1-yl)-5-(trifluoromethyl)phenyl)carbamoyl)benzyl)-1H-pyrrolo[2,3-b]pyridine-5-carboxamide]	< 30 nM	< 30 nM
Cc1cn(-c2cc(NC(=O)c3ccc(C)c(CNc4ccnc(C#N)c4)c3)cc(C(F)(F)F)c2)cn1 [Example 7, 3-(((2-cyanopyridin-4-yl)amino)methyl)-4-methyl-N-(3-(4-methyl-1H-imidazol-1-yl)-5-(trifluoromethyl)phenyl)benzamide]	30 to 300 nM	30 to 300 nM
Cc1ccc(C(=O)Nc2cc(CN3CCN(C)CC3)cc(C(F)(F)F)c2)cc1CNC(=O)c1cnc2ccccn12 [Example 21, N-(2-methyl-5-((3-((4-methylpiperazin-1-yl)methyl)-5-(trifluoromethyl)phenyl)carbamoyl)benzyl)imidazo[1,2-a]pyridine-3-carboxamide]	< 30 nM	< 30 nM
Cc1ccc(NC(=O)c2cc(CN3CCN(C)CC3)cc(C(F)(F)F)c2)cc1CNc1cncnc1 [Example 9, N-(4-methyl-3-((pyrimidin-5-ylamino)methyl)phenyl)-3-((4-methylpiperazin-1-yl)methyl)-5-(trifluoromethyl)benzamide]	< 30 nM	< 30 nM
CC(C)c1ccc(C(=O)Nc2cc(CN3CCN(C)CC3)cc(C(F)(F)F)c2)cc1CNc1cncnc1 [Example 30, 4-isopropyl-N-(3-((4-methylpiperazin-1-yl)methyl)-5-(trifluoromethyl)phenyl)-3-((pyrimidin-5-ylamino)methyl)benzamide]	< 30 nM	< 30 nM
CNC(=O)c1cc(NCc2cc(C(=O)Nc3cc(-n4cnc(C)c4)cc(C(F)(F)F)c3)ccc2C)ccn1 [Example 23, N-methyl-4-((2-methyl-5-((3-(4-methyl-1H-imidazol-1-yl)-5-(trifluoromethyl)phenyl)carbamoyl)benzyl)amino)picolinamide]	< 30 nM	< 30 nM
Cc1cn(-c2cc(NC(=O)c3ccc(C)c(CNC(=O)c4cnc5ccccn45)c3)cc(C(F)(F)F)c2)cn1 [Example 22, N-(2-methyl-5-((3-(4-methyl-1H-imidazol-1-yl)-5-(trifluoromethyl)phenyl)carbamoyl)benzyl)imidazo[1,2-a]pyridine-3-carboxamide]	< 30 nM	< 30 nM
Cc1cn(-c2cc(NC(=O)c3ccc(C)c(CNc4cnc5[nH]ccc5c4)c3)cc(C(F)(F)F)c2)cn1 [Example 5, 3-(((1H-pyrrolo[2,3-b]pyridin-5-yl)amino)methyl)-4-methyl-N-(3-(4-methyl-1H-imidazol-1-yl)-5-(trifluoromethyl)phenyl)benzamide]	< 30 nM	< 30 nM
Cc1cn(-c2cc(NC(=O)c3ccc(C)c(CNc4ccc5ncsc5c4)c3)cc(C(F)(F)F)c2)cn1 [Example 3, 3-((benzo[d]thiazol-6-ylamino)methyl)-4-methyl-N-(3-(4-methyl-1H-imidazol-1-yl)-5-(trifluoromethyl)phenyl)benzamide]	30 to 300 nM	30 to 300 nM
Cc1ccc(C(=O)Nc2cc(CN3CCN(C)CC3)cc(C(F)(F)F)c2)cc1CNC(=O)c1cnc2[nH]ccc2c1 [Example 26, N-(2-methyl-5-((3-((4-methylpiperazin-1-yl)methyl)-5-(trifluoromethyl)phenyl)carbamoyl)benzyl)-1H-pyrrolo[2,3-b]pyridine-5-carboxamide]	< 30 nM	< 30 nM
Cc1cn(-c2cc(NC(=O)c3ccc(C)c(CNC4CNc5ccnn5C4)c3)cc(C(F)(F)F)c2)cn1 (centres unmarked) [Example 6, 4-methyl-N-(3-(4-methyl-1H-imidazol-1-yl)-5-(trifluoromethyl)phenyl)-3-(((4,5,6,7-tetrahydropyrazolo[1,5-a]pyrimidin-6-yl)amino)methyl)benzamide]	300 to 1000 nM	300 to 1000 nM
Cc1ccc(NC(=O)c2cc(CN3CCN(C)CC3)cc(C(F)(F)F)c2)cc1CN(Cc1cnc2ccccn12)Cc1cnc2ccccn12 [Example 12, N-(3-((bis(imidazo[1,2-a]pyridin-3-ylmethyl)amino)methyl)-4-methylphenyl)-3-((4-methylpiperazin-1-yl)methyl)-5-(trifluoromethyl)benzamide]	< 30 nM	30 to 300 nM
